Reference: patent US20230220063A1, “IL-1BETA BINDING ANTIBODIES FOR USE IN TREATING CANCER” (NOVARTIS AG, priority 2017, published 2023)

Tested on: incident cancers in post-myocardial infarction patients with hsCRP ≥2 mg/L
Experiment: CANTOS trial: incident cancers, cancer mortality, canakinumab vs placebo
Assay type: in vivo, human

Substance: canakinumab: high-affinity, fully human monoclonal antibody of the IgG1/k to interleukin-1β; INN number 8836
- Breast, incidence rate (number) (50 mg SC q 3 months): 0.09(7) per 100 person years
- Central Nervous System, incidence rate (number) (50 mg SC q 3 months): 0.04(3) per 100 person years
- Endocrine: Adrenal, incidence rate (number) (50 mg SC q 3 months): 0 per 100 person years
- Endocrine: Thyroid, incidence rate (number) (50 mg SC q 3 months): 0.01(1) per 100 person years
- Gastrointenstinal: Appendiceal, incidence rate (number) (50 mg SC q 3 months): 0 per 100 person years
- Gastrointenstinal: Biliary, incidence rate (number) (50 mg SC q 3 months): 0.03(2) per 100 person years
- Gastrointenstinal: Colorectal, incidence rate (number) (50 mg SC q 3 months): 0.25(20) per 100 person years
- Gastrointenstinal: Esophageal, incidence rate (number) (50 mg SC q 3 months): 0.08(6) per 100 person years
- Gastrointenstinal: Gastric, incidence rate (number) (50 mg SC q 3 months): 0.04(3) per 100 person years
- Gastrointenstinal: Oral cavity/tongue, incidence rate (number) (50 mg SC q 3 months): 0.03(2) per 100 person years
- Gastrointenstinal: Pancreatic, incidence rate (number) (50 mg SC q 3 months): 0.04(3) per 100 person years
- Genitourinary: Bladder, incidence rate (number) (50 mg SC q 3 months): 0.10(8) per 100 person years
- Genitourinary: Cervical, incidence rate (number) (50 mg SC q 3 months): 0 per 100 person years
- Genitourinary: Endometrial/Uterine, incidence rate (number) (50 mg SC q 3 months): 0.03(2) per 100 person years
- Genitourinary: Ovarian, incidence rate (number) (50 mg SC q 3 months): 0 per 100 person years
- Genitourinary: Prostate, incidence rate (number) (50 mg SC q 3 months): 0.19(15) per 100 person years
- Genitourinary: Testicular, incidence rate (number) (50 mg SC q 3 months): 0 per 100 person years
- Hematopoetic: Leukemia, incidence rate (number) (50 mg SC q 3 months): 0.01(1) per 100 person years
- Hematopoetic: Lymphoma, incidence rate (number) (50 mg SC q 3 months): 0.04(3) per 100 person years
- Hematopoetic: Multiple myeloma, incidence rate (number) (50 mg SC q 3 months): 0 per 100 person years
- Kidney, incidence rate (number) (50 mg SC q 3 months): 0.13(10) per 100 person years
- Liver, incidence rate (number) (50 mg SC q 3 months): 0.04(3) per 100 person years
- Lung Cancers: Adenocarcinoma or poorly differentiated large cell carcinoma or unspecified, incidence rate (number) (50 mg SC q 3 months): 0.33 per 100 person years
- Lung Cancers: Pleural cancer, incidence rate (number) (50 mg SC q 3 months): 0 per 100 person years
- Lung Cancers: Small cell lung cancer, incidence rate (number) (50 mg SC q 3 months): 0.01 (1) per 100 person years
- Lung Cancers: Squamous cell lung carcinoma, incidence rate (number) (50 mg SC q 3 months): 0.01 (1) per 100 person years
- Other cancer sites: Other, incidence rate (number) (50 mg SC q 3 months): 0.08(6) per 100 person years
- Sarcoma / Bone, incidence rate (number) (50 mg SC q 3 months): 0.01(1) per 100 person years
- Skin: Basal cell carcinoma, incidence rate (number) (50 mg SC q 3 months): 0.28(22) per 100 person years
- Skin: Melanoma, incidence rate (number) (50 mg SC q 3 months): 0.08(6) per 100 person years
- Skin: Other, incidence rate (number) (50 mg SC q 3 months): 0 per 100 person years
- Skin: Squamous cell skin cancer, incidence rate (number) (50 mg SC q 3 months): 0.10(8) per 100 person years
- Lung Cancers: Adenocarcinoma or poorly differentiated large cell carcinoma or unspecified, incidence rate (number) (50 mg SC q 3 months, listed as Canakinumab): 0.33 (26) per 100 person years
- Breast, incidence rate (number) (150 mg SC q 3 months): 0.05(4) per 100 person years
- Central Nervous System, incidence rate (number) (150 mg SC q 3 months): 0.05(4) per 100 person years
- Endocrine: Adrenal, incidence rate (number) (150 mg SC q 3 months): 0.01(1) per 100 person years
- Endocrine: Thyroid, incidence rate (number) (150 mg SC q 3 months): 0.02(2) per 100 person years
- Gastrointenstinal: Appendiceal, incidence rate (number) (150 mg SC q 3 months): 0 per 100 person years
- Gastrointenstinal: Biliary, incidence rate (number) (150 mg SC q 3 months): 0.03(3) per 100 person years
- Gastrointenstinal: Colorectal, incidence rate (number) (150 mg SC q 3 months): 0.19(16) per 100 person years
- Gastrointenstinal: Esophageal, incidence rate (number) (150 mg SC q 3 months): 0.03(3) per 100 person years
- Gastrointenstinal: Gastric, incidence rate (number) (150 mg SC q 3 months): 0.02(2) per 100 person years
- Gastrointenstinal: Oral cavity/tongue, incidence rate (number) (150 mg SC q 3 months): 0.05(4) per 100 person years
- Gastrointenstinal: Pancreatic, incidence rate (number) (150 mg SC q 3 months): 0.06(5) per 100 person years
- Genitourinary: Bladder, incidence rate (number) (150 mg SC q 3 months): 0.08(7) per 100 person years
- Genitourinary: Cervical, incidence rate (number) (150 mg SC q 3 months): 0.01(1) per 100 person years
- Genitourinary: Endometrial/Uterine, incidence rate (number) (150 mg SC q 3 months): 0 per 100 person years
- Genitourinary: Ovarian, incidence rate (number) (150 mg SC q 3 months): 0.01(1) per 100 person years
- Genitourinary: Prostate, incidence rate (number) (150 mg SC q 3 months): 0.16(14) per 100 person years
- Genitourinary: Testicular, incidence rate (number) (150 mg SC q 3 months): 0.01(1) per 100 person years
- Hematopoetic: Leukemia, incidence rate (number) (150 mg SC q 3 months): 0.02(2) per 100 person years
- Hematopoetic: Lymphoma, incidence rate (number) (150 mg SC q 3 months): 0.05(4) per 100 person years
- Hematopoetic: Multiple myeloma, incidence rate (number) (150 mg SC q 3 months): 0 per 100 person years
- Kidney, incidence rate (number) (150 mg SC q 3 months): 0.07(6) per 100 person years
- Liver, incidence rate (number) (150 mg SC q 3 months): 0.06(5) per 100 person years
- Lung Cancers: Adenocarcinoma or poorly differentiated large cell carcinoma or unspecified, incidence rate (number) (150 mg SC q 3 months): 0.27 per 100 person years
- Lung Cancers: Pleural cancer, incidence rate (number) (150 mg SC q 3 months): 0 per 100 person years
- Lung Cancers: Small cell lung cancer, incidence rate (number) (150 mg SC q 3 months): 0.01 (1) per 100 person years
- Lung Cancers: Squamous cell lung carcinoma, incidence rate (number) (150 mg SC q 3 months): 0.02 (2) per 100 person years
- Other cancer sites: Other, incidence rate (number) (150 mg SC q 3 months): 0.06(5) per 100 person years
- Sarcoma / Bone, incidence rate (number) (150 mg SC q 3 months): 0 per 100 person years
- Skin: Basal cell carcinoma, incidence rate (number) (150 mg SC q 3 months): 0.29(25) per 100 person years
- Skin: Melanoma, incidence rate (number) (150 mg SC q 3 months): 0.06(5) per 100 person years
- Skin: Other, incidence rate (number) (150 mg SC q 3 months): 0.06(5) per 100 person years
- Skin: Squamous cell skin cancer, incidence rate (number) (150 mg SC q 3 months): 0.15(13) per 100 person years
- Lung Cancers: Adenocarcinoma or poorly differentiated large cell carcinoma or unspecified, incidence rate (number) (150 mg SC q 3 months, listed as Canakinumab): 0.27 (23) per 100 person years
- Breast, incidence rate (number) (300 mg SC q 3 months): 0.06(5) per 100 person years
